Measured values: ChEMBL document CHEMBL6109061, “Discovery of an Ultralong-acting Nondepolarizing Neuromuscular Blocker That Displays Short Onset Time and On-Demand Rapid Reversal by a Biocompatible Antagonist” (J Med Chem, 2025)

Columns and labels:
Rattus norvegicus [1] = experiment: Reversal of IMC-14-induced neuromuscular block in Sprague-Dawley rat model assessed as recovery time at 10 mg/kg, iv measured at 5 hrs; assay type: functional
Rattus norvegicus [2] = experiment: Reversal of IMC-14-induced neuromuscular block in Sprague-Dawley rat model assessed as recovery time at 10 mg/kg, iv measured at 30 mins; assay type: functional; conditions: 0.5 h
Rattus norvegicus [3] = experiment: Reversal of IMC-14-induced neuromuscular block in Sprague-Dawley rat model assessed as recovery time at 10 mg/kg, iv measured at 30 sec; assay type: functional; conditions: 0.5 min
Rattus norvegicus [4] = experiment: Reversal of IMC-14-induced neuromuscular block in Sprague-Dawley rat model assessed as recovery time at 20 mg/kg, iv measured at 19 sec; assay type: functional; conditions: 19 s
[5] = Toxicity in Sprague-Dawley rat at 0.2 mg/kg, iv measured for 5 hrs; assay type: organism-based; conditions: in vivo

SMILES: C[C@]12N3Cc4c(c(OCCCC(=O)[O-])c5ccccc5c4OCCCC(=O)[O-])CN1C(=O)N1CN4C(=O)N5CN6C(=O)N7CN8C(=O)N9Cc%10c(c(OCCCC(=O)[O-])c%11ccccc%11c%10OCCCC(=O)[O-])CN%10C(=O)N(CN%11C(=O)N(CN%12C(=O)N(CN(C3=O)[C@]12C)[C@@H]4[C@H]%125)[C@@H]6[C@H]%117)[C@]8(C)[C@@]9%10C.[Na+].[Na+].[Na+].[Na+]
- Time (Rattus norvegicus [1]): 12 s
- Time (Rattus norvegicus [2]): 19 s
- Time (Rattus norvegicus [3]): 54 s
- Time (Rattus norvegicus [4]): 30 s
- Activity [5]: Non-toxic
